Laboratory results from patent US20040023945A1, “CYCLIC AMP-SPECIFIC PHOSPHODIESTERASE INHIBITORS” (ICOS Corporation, priority 1999, published 2004).
Like-named read-outs stand apart in the source and are kept apart here.

Legend:
[1] = target: T1, PDE3A (Homo sapiens, UniProt Q14432); test: Inhibition of PDE3A; type: biochemical
T1 construct: contained the complete open reading frame of PDE3A; made in house; host or cells: baculovirus-infected Sf9 cells

[2] = target: T2, PDE1B (Homo sapiens, UniProt Q01064); test: Inhibition of PDE1B; type: biochemical
T2 construct: made in house; host or cells: Saccharomyces cerevisiae BJ2-54

[3] = target: T3, PDE1A (Homo sapiens, UniProt P54750); test: Inhibition of PDE1A; type: biochemical
T3 construct: contained the complete open reading frame of PDE1A3; made in house; host or cells: baculovirus-infected Sf9 cells

[4] = test system: human peripheral blood lymphocytes; test: Lipopolysaccharide-stimulated TNFα release from human peripheral blood lymphocytes; type: cell-based; details: Homo sapiens, Lymphocyte
Description: The compounds of structural formula (II) also were tested for an ability to reduce TNFα secretion in human peripheral blood lymphocytes. The ability to reduce TNFα secretion is related to the EC50 values (i.e., the effective concentration of the compound capable of inhibiting 50% of the total TNFα).
To assess the ability of a compound to reduce TNFα secretion in human peripheral blood lymphocytes (PBL), the following tests were performed.
Heparinized blood (approximately 30 mL) drawn from human volunteers was mixed 1:1 with Dulbecco's modified phosphate-buffered saline. This mixture was mixed 1:1 with HISTOPAQUE® and centrifuged at 1,500 rpm at room temperature without braking in the swinging bucket of a Beckman model TJ6 centrifuge. Erythrocytes were centrifuged to the bottom of the tubes, and serum remained at the surface of the tubes. A layer containing lymphocytes sedimented between the serum and HISTOPAQUE® layers, and was removed by aspiration to a fresh tube. The cells were quantified and adjusted to 3×10^6 cells/mL and a 100 μL aliquot is placed into the wells of a 96 well plate. Test compounds and RPMI media (Gibco/BRL Life Sciences) are added to each of the wells 15 minutes prior to addition of bacterial LPS ([…]). The mixture was allowed to incubate for 20 hours at 37° C. in a humidified chamber. The cells then were separated by centrifuging at 800 rpm for 5 minutes at room temperature. An aliquot of 180 μL of supernatant was transferred to a new plate for determination of TNFα concentration. TNFα protein in the cell supernatant fluids was measured using a commercially available enzyme-linked immunosorbent assay (ELISA) (CYTOSCREEN® Immunoassay Kit from Biosource International).
The cell-based assay provided the following results for various pyrrolidine compounds of the present invention. The EC50 values (i.e., effective concentration of the compound capable of inhibiting 50% of the total TNFα) illustrate the ability of the present compounds to inhibit LPS-stimulated TNFα release from human PBL.

[5] = target: T4, PDE5 (Homo sapiens, UniProt O76074); test: Inhibition of PDE5; type: biochemical
T4 construct: made in house; host or cells: Saccharomyces cerevisiae BJ2-54

[6] = test system: recombinant human PDE4; test: Inhibition of recombinant human PDE4 (cAMP hydrolysis); details: read-out: PDE4 IC50
Description: The compounds of structural formula (II) were tested for an ability to inhibit PDE4. […] The IC, value for compounds of structural formula (II) were determined using recombinant human PDE4.
Phosphodiesterase activity of the preparations was determined as follows. […] In this assay, PDE activity converts [32P]cAMP or [32P]cGMP to the corresponding [32P]5′-AMP or [32P]5′-GMP in proportion to the amount of PDE activity present. The [32P]5′-AMP or [32P]5′-GMP then was quantitatively converted to free [32P]phosphate and unlabeled adenosine or guanosine by the action of snake venom 5′-nucleotidase. […] The assay was performed at 30° C. in a 100 μL reaction mixture containing (final concentrations) 40 mM Tris HCl (pH 8.0), 1 μM ZnSO4, 5 mM MgCl2, and 0.1 mg/mL bovine serum albumin (BSA). […] PDE enzyme was present in quantities that yield<30% total hydrolysis of substrate (linear assay conditions). The assay was initiated by addition of substrate (1 mM [32P]cAMP or cGMP), and the mixture was incubated for 12 minutes. Seventy-five (75) μg of Crotalus atrox venom then was added, and the incubation was continued for 3 minutes (15 minutes total). The reaction was stopped by addition of 200 μL of activated charcoal (25 mg/mL suspension in 0.1 M NaH2PO4, pH 4). After centrifugation (750×g for 3 minutes) to sediment the charcoal, a sample of the supernatant was taken for radioactivity determination in a scintillation counter and the PDE activity was calculated.

[7] = test system: ferret; test: Emetic modeling in the ferret following oral and intravenous dosing; type: in vivo, Mustela putorius furo
Description: This study was conducted to investigate the emetogenic properties of PDE4 inhibitors in vivo. The ferret previously has been established as a valuable tool for assessing emesis following exposure to test compounds. […] Therefore, lack of and/or decrease in emetic potential of test compounds in ferrets predicts a favorable nonemetic effect in humans. Emesis is a complex physiological response to noxious agents that can be intiated peripherally or centrally.
The test animals were adult, castrated, and descented male ferrets (species=Mustela putorius furo, Strain=Sable) ranging in weight from about 1 to 1.5 kg. The tests were performed in quadruplicate on animals that were naive to PDE4 inhibitors. The PDE4 inhibitors were formulated in 10% Polyoxyl-35 castor oil (CREMOPHOR® EL, available from BASF Corporation, Parsippany, N.J.) in phosphate buffered saline (PBS), and were administered via i.v. injections into an indwelling catheter surgically positioned in the right external jugular vein at a rate of 0.66 mL per kg body weight. PDE4 inhibitors for oral consumption were formulated in 30% CREMOPHOR® EL in PBS, and administered by intubating animals with a 16-gauge feeding needle into the stomach. The animals received the PDE4 inhibitors in a volume of 1.33 mL per kg body weight.
All animals were fasted for 8 to 12 hours prior to administration of PDE4 inhibitors. Following administration of a PDE4 inhibitor, emetic and behavioral responses were quantified for three hours post dosing. The total number of emetic responses and vomiting episodes were quantified during the observation interval. In addition, latency time to first emetic episode, duration of emesis episodes, and gross behavioral changes including ataxia, profuse and viscous salivation, mouth clawing, hyperventilation, backward walking, flattened body posture, hyperactivity, lip licking, and general appearance were recorded.
For comparative purposes, the emetogenic effect of Samples 66 and 69 were tested intravenously at 1.0, 2.5, 5.0, and 10 mg/kg and orally at 2.5, 10, 17, and 25 mg/kg.

[8] = target: T5, PDE1C (Homo sapiens, UniProt Q14123); test: Inhibition of PDE1C; type: biochemical
T5 construct: contained the complete open reading frame of PDE1C3; made in house; host or cells: baculovirus-infected Sf9 cells

[9] = target: T6, PDE7 (Homo sapiens, UniProt Q13946); test: Inhibition of PDE7; type: biochemical
T6 construct: made in house; host or cells: Saccharomyces cerevisiae BJ2-54

[10] = target: T7, human recombinant PDE4B (Homo sapiens, UniProt Q07343); test: Inhibition of human recombinant PDE4B; type: biochemical
T7 construct: made in house; host or cells: Saccharomyces cerevisiae strain YI23 harboring HDUN2.32

[11] = target: T8, PDE2 (Homo sapiens, UniProt O00408); test: Inhibition of PDE2; type: biochemical
T8 construct: made in house; host or cells: Saccharomyces cerevisiae strain YI34

[12] = test system: serum TNFα levels in LPS-injected mice; test: Inhibition of serum TNFα levels in LPS-injected mice (Mouse/TNFα ED50); type: in vivo; details: Mus musculus
Description: In order to assess the ability of a compound to reduce serum TNFα levels in mammals, the following protocol was employed. […] Accordingly, in vivo efficacy of a PDE4 reducing compound was shown by dosing with compound and measuring reduction of serum TNFα levels in LPS-injected mice. Female C3H mice, 20-25 gm body weight, were fasted overnight and dosed intraperitoneally with test compound in appropriate vehicle 60 minutes before LPS injection. Five μg of LPS was then injected intraperitoneally into the mice. Ninety minutes after LPS injection, mice were bled from the heart. Blood was allowed to clot overnight at 4° C. Samples were centrifuged for 10 minutes in a microcentrifuge and the serum removed and stored at −20° C. until analysis. Serum levels of TNFα were subsequently measured using a commercially available ELISA kit (Genzyme) following the protocol enclosed in the kit. The percent of inhibition of serum TNFα levels caused by the compound was determined relative to serum TNFα levels in control mice receiving vehicle alone. […]

[13] = test system: mouse; test: Subjective assessment of mouse immobility (CNS side effects); type: in vivo; details: subjective assessment of mouse immobility, i.p. 1, 10 and 100 mg/kg, 60 minutes
[14] = test system: Balb/c mice; test: Mouse locomotor activity assay (decrease in spontaneous mobility); details: in vivo, ip
Description: (§1) The purpose of this study was to determine the efficacy of PDE4 inhibitors in vivo in an LPS mouse model together with a determination with respect to central nervous system (CNS) side-effects manifested by a decrease in spontaneous mobility.
(§2) The test animals were female Balb/c mice, having an average weight of about 20 g. The PDE4 inhibitors, formulated in 30% Cremophor® EL, were administered via intraperitoneal (i.p.) injections at doses of 0.1, 1.0, 10.0, and 100 mg/kg. Individual dose volumes (about 150 μL) were adjusted based on the body weights measured. One hour later, 5 mg/kg LPS in a final volume of 200 μL was injected via the tail vein to each animal. Ninety minutes following the LPS treatment, the animals were bled and serum samples were collected before being stored at −70° C. until assayed.
(§3) Movement of the X-Y plane, or rearing up on the hind legs, was quantified by counting the number of “light-beam” crosses per unit of time. A decrease in the number of activity events is directly proportional to the mobility or immobilization of the animal. The quantitative scoring correlated well with the subjective measurements described above.

[15] = as above; details: female, Balb/c, in vivo, intraperitoneal, read-out: Mouse Inhibition of Spontaneous Mobility ED50
Description: as §1, §2, §3

[16] = A. Robichaud et al., Neuropharmacology 1999; cited from earlier work
[17] = test system: recombinant human PDE4; details: background, prior art; read-out: reported IC50 with respect to recombinant human PDE4; cited from earlier work
[18] = read-out: Mouse LPS Challenge ED50

T7 sequence (Q07343 whole entry): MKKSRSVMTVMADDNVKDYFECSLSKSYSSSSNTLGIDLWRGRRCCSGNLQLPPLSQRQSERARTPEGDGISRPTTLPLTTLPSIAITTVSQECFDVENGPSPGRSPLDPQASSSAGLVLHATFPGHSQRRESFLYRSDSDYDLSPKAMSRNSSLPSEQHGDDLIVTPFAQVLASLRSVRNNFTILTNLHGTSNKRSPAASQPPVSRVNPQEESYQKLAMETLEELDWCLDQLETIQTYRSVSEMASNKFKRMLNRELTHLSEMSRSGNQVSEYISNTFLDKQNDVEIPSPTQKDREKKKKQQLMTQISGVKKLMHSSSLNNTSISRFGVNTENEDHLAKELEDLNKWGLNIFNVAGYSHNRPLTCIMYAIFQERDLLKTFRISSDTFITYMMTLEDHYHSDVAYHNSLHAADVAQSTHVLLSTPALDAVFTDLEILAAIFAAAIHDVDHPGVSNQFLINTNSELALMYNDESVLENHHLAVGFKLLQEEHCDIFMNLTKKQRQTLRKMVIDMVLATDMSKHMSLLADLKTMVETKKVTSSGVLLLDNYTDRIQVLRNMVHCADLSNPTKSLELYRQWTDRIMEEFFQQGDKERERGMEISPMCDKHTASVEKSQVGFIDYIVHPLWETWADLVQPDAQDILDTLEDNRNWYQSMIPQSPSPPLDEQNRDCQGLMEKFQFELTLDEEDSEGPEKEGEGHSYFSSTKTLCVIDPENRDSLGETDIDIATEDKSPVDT
T6 sequence (Q13946 whole entry): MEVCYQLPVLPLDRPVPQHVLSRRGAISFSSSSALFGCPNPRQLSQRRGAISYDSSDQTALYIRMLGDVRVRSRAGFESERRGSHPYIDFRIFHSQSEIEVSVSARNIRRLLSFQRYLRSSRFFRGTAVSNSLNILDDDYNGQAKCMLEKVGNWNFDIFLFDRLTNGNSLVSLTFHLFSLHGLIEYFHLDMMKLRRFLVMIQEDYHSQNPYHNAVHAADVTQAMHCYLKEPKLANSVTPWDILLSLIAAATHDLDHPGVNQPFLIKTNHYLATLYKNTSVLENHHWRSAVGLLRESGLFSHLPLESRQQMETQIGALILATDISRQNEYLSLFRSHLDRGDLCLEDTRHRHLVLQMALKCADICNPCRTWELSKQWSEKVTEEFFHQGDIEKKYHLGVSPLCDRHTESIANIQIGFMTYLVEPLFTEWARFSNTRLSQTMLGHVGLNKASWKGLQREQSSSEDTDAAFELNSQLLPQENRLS
T8 sequence (O00408 whole entry): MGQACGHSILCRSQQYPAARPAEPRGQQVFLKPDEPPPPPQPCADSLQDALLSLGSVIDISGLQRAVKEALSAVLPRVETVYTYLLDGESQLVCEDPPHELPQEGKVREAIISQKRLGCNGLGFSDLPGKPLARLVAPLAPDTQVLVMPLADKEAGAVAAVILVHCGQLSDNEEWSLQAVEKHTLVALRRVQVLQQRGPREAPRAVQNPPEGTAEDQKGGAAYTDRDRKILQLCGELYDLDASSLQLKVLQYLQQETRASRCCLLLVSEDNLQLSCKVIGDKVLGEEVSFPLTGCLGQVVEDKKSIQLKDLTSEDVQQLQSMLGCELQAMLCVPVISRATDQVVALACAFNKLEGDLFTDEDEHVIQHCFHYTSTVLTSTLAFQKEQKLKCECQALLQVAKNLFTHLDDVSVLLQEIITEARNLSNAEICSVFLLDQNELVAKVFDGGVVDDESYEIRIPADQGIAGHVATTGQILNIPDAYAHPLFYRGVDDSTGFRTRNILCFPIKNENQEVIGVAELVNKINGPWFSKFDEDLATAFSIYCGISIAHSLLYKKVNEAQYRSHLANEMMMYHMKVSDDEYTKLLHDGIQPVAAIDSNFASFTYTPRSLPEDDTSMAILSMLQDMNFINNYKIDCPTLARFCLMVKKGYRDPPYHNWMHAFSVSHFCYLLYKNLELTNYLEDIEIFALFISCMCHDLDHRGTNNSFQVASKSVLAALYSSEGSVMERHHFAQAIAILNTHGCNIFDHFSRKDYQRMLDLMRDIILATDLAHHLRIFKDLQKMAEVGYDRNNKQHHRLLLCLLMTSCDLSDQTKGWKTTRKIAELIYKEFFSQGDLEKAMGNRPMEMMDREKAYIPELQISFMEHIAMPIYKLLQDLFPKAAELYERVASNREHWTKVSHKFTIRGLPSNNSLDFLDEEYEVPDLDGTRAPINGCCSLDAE
T1 sequence (Q14432 whole entry): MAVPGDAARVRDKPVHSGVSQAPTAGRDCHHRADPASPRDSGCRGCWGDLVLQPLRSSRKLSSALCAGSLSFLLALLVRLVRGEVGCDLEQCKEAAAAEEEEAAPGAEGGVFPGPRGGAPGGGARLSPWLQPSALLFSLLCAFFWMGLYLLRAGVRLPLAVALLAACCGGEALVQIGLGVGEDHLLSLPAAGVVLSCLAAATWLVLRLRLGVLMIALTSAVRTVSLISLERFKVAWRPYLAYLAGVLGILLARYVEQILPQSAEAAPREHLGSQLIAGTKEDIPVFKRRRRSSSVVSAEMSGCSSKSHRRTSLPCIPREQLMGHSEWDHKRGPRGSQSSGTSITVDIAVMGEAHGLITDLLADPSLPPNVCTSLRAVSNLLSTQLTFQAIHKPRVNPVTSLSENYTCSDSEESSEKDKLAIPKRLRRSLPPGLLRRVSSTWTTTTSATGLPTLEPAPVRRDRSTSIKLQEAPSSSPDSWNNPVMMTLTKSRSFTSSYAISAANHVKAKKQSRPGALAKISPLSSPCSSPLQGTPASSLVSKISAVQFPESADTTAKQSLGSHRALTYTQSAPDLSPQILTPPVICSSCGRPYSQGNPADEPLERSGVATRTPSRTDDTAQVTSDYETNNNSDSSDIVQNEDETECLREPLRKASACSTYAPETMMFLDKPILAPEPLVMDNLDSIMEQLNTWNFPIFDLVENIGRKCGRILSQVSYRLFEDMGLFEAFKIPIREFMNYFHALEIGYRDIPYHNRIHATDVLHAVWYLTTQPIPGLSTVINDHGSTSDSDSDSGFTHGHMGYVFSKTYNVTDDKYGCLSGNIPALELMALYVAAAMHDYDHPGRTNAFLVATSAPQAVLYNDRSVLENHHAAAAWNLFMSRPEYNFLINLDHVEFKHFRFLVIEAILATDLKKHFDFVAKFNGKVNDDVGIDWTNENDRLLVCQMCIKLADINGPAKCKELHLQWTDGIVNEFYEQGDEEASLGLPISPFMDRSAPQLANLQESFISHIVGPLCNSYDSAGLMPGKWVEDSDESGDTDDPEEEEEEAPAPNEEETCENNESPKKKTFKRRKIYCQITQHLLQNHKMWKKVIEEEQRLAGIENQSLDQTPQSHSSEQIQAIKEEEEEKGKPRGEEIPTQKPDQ

COC(=O)N1C[C@@H](c2ccc(OC)c(OC3CCCC3)c2)[C@](C)([C@@H](C)O)C1 [(C)]
IC50 [1]: 40000 nM | IC50 [2]: 100000 nM | IC50 [3]: 80000 nM | EC50 ([4]; LPS-stimulated TNFα release from human PBL, read-out: PBL/TNFα EC50): 71.6 nM | IC50 [5]: 270000 nM | IC50 ([6]; human recombinant PDE4): 14 nM | IC50 ([6]; stereoisomer comparison table): 14 nM | Number of Emetic Events: Retches ([7]; intravenous 1.0 mg/kg): 0 | Number of Emetic Events: Total ([7]; intravenous 1.0 mg/kg): 0 | Number of Emetic Events: Vomits ([7]; intravenous 1.0 mg/kg): 0 | Responders ([7]; intravenous 1.0 mg/kg): 0/4 | Number of Emetic Events: Retches ([7]; intravenous 2.5 mg/kg): 0 | Number of Emetic Events: Total ([7]; intravenous 2.5 mg/kg): 0 | Number of Emetic Events: Vomits ([7]; intravenous 2.5 mg/kg): 0 | Responders ([7]; intravenous 2.5 mg/kg): 0/4 | Number of Emetic Events: Retches ([7]; intravenous 5.0 mg/kg): 10 | Number of Emetic Events: Total ([7]; intravenous 5.0 mg/kg): 10 | Number of Emetic Events: Vomits ([7]; intravenous 5.0 mg/kg): 0 | Responders ([7]; intravenous 5.0 mg/kg): 2/4 | Number of Emetic Events: Retches ([7]; intravenous 10.0 mg/kg): 27 | Number of Emetic Events: Total ([7]; intravenous 10.0 mg/kg): 31 | Number of Emetic Events: Vomits ([7]; intravenous 10.0 mg/kg): 4 | Responders ([7]; intravenous 10.0 mg/kg): 4/4 | distress after intravenous dosing ([7]; intravenous 10 mg/kg body weight): none displayed the distress | Number of Emetic Events: Retches ([7]; oral 2.5 mg/kg): 0 | Number of Emetic Events: Total ([7]; oral 2.5 mg/kg): 0 | Number of Emetic Events: Vomits ([7]; oral 2.5 mg/kg): 0 | Responders ([7]; oral 2.5 mg/kg): 0/4 | Number of Emetic Events: Retches ([7]; oral 10.0 mg/kg): 14 | Number of Emetic Events: Total ([7]; oral 10.0 mg/kg): 22 | Number of Emetic Events: Vomits ([7]; oral 10.0 mg/kg): 8 | Responders ([7]; oral 10.0 mg/kg): 2/4 | Number of Emetic Events: Retches ([7]; oral 17.0 mg/kg): 17 | Number of Emetic Events: Total ([7]; oral 17.0 mg/kg): 18 | Number of Emetic Events: Vomits ([7]; oral 17.0 mg/kg): 1 | Responders ([7]; oral 17.0 mg/kg): 2/3 | Number of Emetic Events: Retches ([7]; oral 25.0 mg/kg): 61 | Number of Emetic Events: Total ([7]; oral 25.0 mg/kg): 73 | Number of Emetic Events: Vomits ([7]; oral 25.0 mg/kg): 12 | Responders ([7]; oral 25.0 mg/kg): 4/4 | IC50 [8]: 12000 nM | IC50 [9]: 36000 nM | IC50 ([10]; read-out: IC50 vs. human recombinant PDE4B): 15 nM | IC50 [11]: 450000 nM | ED50 ([12]; stereoisomer comparison table, read-out: Mouse/TNFα ED50): 5 mg/kg | CNS Side Effects [13]: No effect

COc1ccc([C@@H]2CN(C(=O)CNC(=O)OCc3ccccc3)C[C@@]2(C)[C@@H](C)O)cc1OC1Cc2ccccc2C1 [Example 29, N-(2-[3-((1R)-1-Hydroxyethyl)(3S,4S)-4-(3-indan-2-yloxy-4-methoxyphenyl)-3-methylpyrrolidinyl]-2-oxoethyl}(phenylmethoxy)carboxamide]
ED50, effective dose that decreases spontaneous mobility 50% of control [14]: 9.8 mg/kg

COc1ccc([C@@H]2CN(C(=O)C(O)c3ccccc3)C[C@@]2(C)[C@@H](C)O)cc1OCC1CC1 (stereo partly drawn) [Example 195, 1-{3-((1R)-1-Hydroxyethyl)(3S,4S)-4-[3-(cyclopropyl-methoxy)-4-methoxyphenyl]-3-methylpyrrolidinyl}-2-hydroxy-2-phenylethan-1-one]
ED50 [15]: 100 mg/kg | EC50 ([4]; read-out: Cell based EC50): 30 nM | IC50 ([10]; read-out: PDE4B IC50): 7 nM | ED50 [12, 18]: 9 mg/kg

COc1ccc([C@@H]2CN(C(=O)[C@@H](O)CO)C[C@@]2(C)[C@@H](C)O)cc1OCC#Cc1ccccc1 [Example 264, (S)-2,3-Dihydroxy-1-{(3S,4S)-3-((R)-1-hydroxyethyl)-4-[4-methoxy-3-(3-phenylprop-2-ynyloxy)phenyl]-3-methylpyrrolidin-1-yl}propan-1-one]
ED50 [15]: < 100 mg/kg | EC50 ([4]; read-out: Cell based EC50): 10 nM | IC50 ([10]; read-out: PDE4B IC50): 3 nM | ED50 [12, 18]: 1 mg/kg

COc1ccc([C@@H]2CN(C(=O)[C@@H](O)Cc3ccccc3)C[C@@]2(C)[C@@H](C)O)cc1OCC#Cc1ccccc1 [Example 268, (S)-2-Hydroxy-1-{(3S,4S)-3-((R)-1-hydroxyethyl)-4-[4-methoxy-3-(3-phenylprop-2-ynyloxy)phenyl]-3-methylpyrrolidin-1-yl}-3-phenylpropan-1-one]
ED50 [15]: 100 mg/kg | EC50 ([4]; read-out: Cell based EC50): 6 nM | IC50 ([10]; read-out: PDE4B IC50): 15 nM | ED50 [12, 18]: 5 mg/kg

COc1ccc([C@@H]2CNC(=O)C2)cc1OC1CCCC1 [R-rolipram]
emetic potency relative to the (+)-enantiomer (S-rolipram) [16]: about ten-fold

COc1ccc(C2CNC(=O)C2)cc1OC1CCCC1 (centres unmarked) [Rolipram, rolipram]
IC50 [17]: ~200 nM

COC(=O)N1CC(c2ccc(OC)c(OC3CCCC3)c2)C(C)(C(C)=O)C1 (centres unmarked) [formula (I)]
IC50 [17]: ~2 nM
